For assay [1], the system named is Mus musculus. Kind of assay: Anticonvulsant activity in mouse at 300 mg/kg, ip after 5 mins by MES test. The class given is functional, organism-based. Further details: dose 300 mg/kg.
Assay [2] deals with Mus musculus. Kind of assay: Anticonvulsant activity in mouse at 300 mg/kg, ip after 60 mins by MES test. Format: functional, organism-based. Further details: dose 300 mg/kg.
The test system of assay [3] is Mus musculus. Kind of assay: Anticonvulsant activity in mouse at 300 mg/kg, ip after 15 mins by MES test. Format: functional, organism-based. More on the design: dose 300 mg/kg.
Assay [4] has as its system Mus musculus. Put plainly: Anticonvulsant activity in mouse at 300 mg/kg, ip after 30 mins by MES test. The class given is functional, organism-based. Further details: dose 300 mg/kg.
Assay [5] deals with Mus musculus. Kind of assay: Anticonvulsant activity in mouse at 300 mg/kg, ip after 120 mins by MES test. The class given is functional, organism-based. More on the design: dose 300 mg/kg.
The species named for assay [6] is Mus musculus. Kind of assay: Anticonvulsant activity in mouse after 60 mins by MES test. The class given is functional. Particulars: 1 h.
The species entered for assay [7] is Mus musculus. Kind of assay: Anticonvulsant activity in mouse after 30 mins by MES test. Format: functional. Particulars: 0.5 h.
The species named for assay [8] is Mus musculus. Kind of assay: Anticonvulsant activity in mouse after 5 mins by MES test. Format: functional.
The species named for assay [9] is Mus musculus. Put plainly: Anticonvulsant activity in mouse after 15 mins by MES test. The class given is functional. Conditions: 0.25 h.
In assay [10] the test system is Thoracic aorta. Kind of assay: Muscle relaxant activity in rat thoracic aorta assessed as inhibition of KCl-induced contraction at 100 uM. Format: functional.

Molecules are shown by their SMILES. Activity calls are given as the source filed them. The calls are words filed in the database; no cut-off is given here.

For `CC(=O)c1ccc(OC/C=C(\C)CCC=C(C)C)cc1O`, the result in assay [1], in [2], in assay [3], in [4] and in assay [5] was inactive.
`CC(C)=CCOc1ccc2ccc(=O)oc2c1` [7-PRENYLOXYCOUMARIN]: the result in assay [1], in [3] and in assay [4] was Active. Besides, the median effective dose (ED50) in assay [6] is more than 350 mg/kg; in assay [7], 221 mg/kg; in assay [8], more than 350 mg/kg; in assay [9] it was 238 mg/kg. Besides, the inhibition at 100 µM in assay [10] was 80%. Besides, the outcome in assay [5] was inactive.
Take `COc1cc(C(=O)O)ccc1OC/C=C(\C)CCC=C(C)C`: the result in assay [1], in assay [2], in [3], in [4] and in assay [5] was inactive.
With `CC(C)=CCOc1ccc(C(=O)/C=C/c2ccc(O)cc2)c(O)c1`, the outcome in assay [1], in assay [2], in assay [3], in [4] and in [5] was inactive.
Consider `CC(C)=CCC/C(C)=C/COc1ccc(/C=C/C(=O)O)cc1`, for which the result in assay [1], in assay [2], in assay [3], in assay [4] and in assay [5] was inactive.
`CC(C)=CCOc1ccc(CCC(=O)O)cc1`: the outcome in [1], in [2], in assay [3], in assay [4] and in [5] was inactive.
`CC(C)=CCC/C(C)=C/COc1ccc2ccc(=O)oc2c1`: the outcome in [1], in assay [2], in assay [3] and in assay [4] was inactive.
Consider `COc1cc(C(=O)O)ccc1OCC=C(C)C`, for which the outcome in [1], in assay [2], in assay [3], in assay [4] and in assay [5] was inactive.
As to `COc1c(OC/C=C(\C)CCC=C(C)C)ccc2ccc(=O)oc12`, the result in [2], in assay [3], in [4] and in assay [5] was inactive.
With `CC(=O)c1ccc(OCC=C(C)C)cc1O`, the result in assay [1], in [2], in assay [3], in assay [4] and in assay [5] was inactive.
Turning to `CC(C)=CCOc1ccc(C(=O)/C=C/c2ccccc2)c(O)c1`, the result in assay [1], in [2], in [3], in assay [4] and in assay [5] was inactive.
In the case of `CC(C)=CCC/C(C)=C/COc1ccc(C(=O)/C=C/c2ccc(O)cc2)c(O)c1`, the result in [1], in assay [2], in [3], in [4] and in [5] was inactive.
For `COc1cc(/C=C/C(=O)O)ccc1OCC=C(C)C`, the outcome in assay [1], in assay [2], in assay [3], in assay [4] and in [5] was inactive.
Take `COc1cc(/C=C/C(=O)O)ccc1OC/C=C(\C)CCC=C(C)C`: the ED50 is more than 350 mg/kg in [6], 224 mg/kg in [7], 225 mg/kg in [8] and 224 mg/kg in assay [9]. For the same compound, the outcome in assay [3] and in assay [4] was Active. Further, the outcome in assay [5] was inactive.
`CC(C)=CCOc1ccc(/C=C/C(=O)O)cc1`: the outcome in assay [1] and in [3] was Active. Further, the median effective dose (ED50) in assay [6] is more than 350 mg/kg; in [7] it was 312 mg/kg; in assay [8], 228 mg/kg; in [9], 262 mg/kg. Further, the result in assay [5] was inactive.
In the case of `COc1c(OCC=C(C)C)ccc2ccc(=O)oc12`, the result in [1], in [2], in assay [3], in [4] and in assay [5] was inactive.
Consider `CC(C)=CCOc1ccc2ccc(=O)oc2c1O`, for which the outcome in assay [2], in [4] and in assay [5] was inactive.

Source of the values: ChEMBL document CHEMBL1155980, “Prenyloxyphenylpropanoids as a novel class of anticonvulsive agents” (2009).
